Here are results for 26 compounds from ChEMBL document CHEMBL4007428, “Modulating the selectivity of matriptase-2 inhibitors with unnatural amino acids” (Eur J Med Chem, 2017).

Data set [1] has as its target T1, Suppressor of tumorigenicity 14 protein (Homo sapiens, UniProt Q9Y5Y6).
T1 sequence (Q9Y5Y6 whole entry): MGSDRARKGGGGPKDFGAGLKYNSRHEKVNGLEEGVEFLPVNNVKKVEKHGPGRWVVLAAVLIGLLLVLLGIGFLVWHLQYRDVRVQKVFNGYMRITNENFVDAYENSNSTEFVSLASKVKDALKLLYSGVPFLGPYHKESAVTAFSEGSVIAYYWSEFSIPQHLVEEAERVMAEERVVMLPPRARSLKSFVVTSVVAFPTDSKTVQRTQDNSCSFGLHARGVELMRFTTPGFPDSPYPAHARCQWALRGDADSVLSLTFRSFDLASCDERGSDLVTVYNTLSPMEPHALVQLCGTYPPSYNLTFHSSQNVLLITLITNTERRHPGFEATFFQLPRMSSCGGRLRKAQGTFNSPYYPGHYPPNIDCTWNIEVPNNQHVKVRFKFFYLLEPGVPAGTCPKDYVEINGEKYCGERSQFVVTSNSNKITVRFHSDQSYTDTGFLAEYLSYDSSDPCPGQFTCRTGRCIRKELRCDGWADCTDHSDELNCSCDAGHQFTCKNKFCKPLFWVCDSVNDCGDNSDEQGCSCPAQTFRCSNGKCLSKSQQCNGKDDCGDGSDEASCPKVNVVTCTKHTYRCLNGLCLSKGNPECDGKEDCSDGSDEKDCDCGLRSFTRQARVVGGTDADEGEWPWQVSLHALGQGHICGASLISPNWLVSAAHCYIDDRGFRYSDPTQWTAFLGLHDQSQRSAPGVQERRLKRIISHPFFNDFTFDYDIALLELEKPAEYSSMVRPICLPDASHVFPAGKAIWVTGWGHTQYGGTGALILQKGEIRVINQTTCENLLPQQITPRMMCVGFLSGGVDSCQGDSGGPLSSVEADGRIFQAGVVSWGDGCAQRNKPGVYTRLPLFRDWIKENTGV
Description: Inhibition of recombinant human matriptase (596 to 855 residues) expressed in Escherichia coli using Boc-Gln-Ala-ArgAMC as substrate measured for 1200 mins by fluorescence assay

The species entered for the next data set is Homo sapiens. The experiment in a line: Selectivity ratio of Ki for recombinant human matriptase (596 to 855 residues) expressed in Escherichia coli to Ki for recombinant human C-terminal V5-His-tagged matriptase-2 expressed in Drosophila S2 cells.
For data set [2], the target named is T2, Transmembrane protease serine 6 (Homo sapiens, UniProt Q8IU80).
T2 sequence (Q8IU80 whole entry): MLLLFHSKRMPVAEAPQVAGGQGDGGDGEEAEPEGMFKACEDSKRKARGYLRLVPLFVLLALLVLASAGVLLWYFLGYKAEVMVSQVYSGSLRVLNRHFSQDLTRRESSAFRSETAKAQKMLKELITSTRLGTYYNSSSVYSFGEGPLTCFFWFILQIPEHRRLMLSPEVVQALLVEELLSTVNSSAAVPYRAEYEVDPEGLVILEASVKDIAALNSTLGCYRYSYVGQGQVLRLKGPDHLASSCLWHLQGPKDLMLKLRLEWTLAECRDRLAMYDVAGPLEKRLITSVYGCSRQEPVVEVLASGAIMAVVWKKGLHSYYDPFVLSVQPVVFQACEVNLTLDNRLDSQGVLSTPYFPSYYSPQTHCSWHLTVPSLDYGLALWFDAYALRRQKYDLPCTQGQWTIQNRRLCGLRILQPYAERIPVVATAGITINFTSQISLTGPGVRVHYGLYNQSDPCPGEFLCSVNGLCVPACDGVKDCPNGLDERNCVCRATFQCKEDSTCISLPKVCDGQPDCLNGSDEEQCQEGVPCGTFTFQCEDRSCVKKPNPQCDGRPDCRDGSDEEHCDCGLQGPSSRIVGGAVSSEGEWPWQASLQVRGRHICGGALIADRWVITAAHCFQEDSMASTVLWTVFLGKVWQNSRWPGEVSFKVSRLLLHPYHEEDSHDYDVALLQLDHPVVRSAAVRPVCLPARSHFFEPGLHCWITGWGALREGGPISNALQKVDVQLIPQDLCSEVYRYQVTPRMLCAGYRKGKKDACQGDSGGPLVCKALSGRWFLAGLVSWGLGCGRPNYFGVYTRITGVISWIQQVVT
The experiment in a line: Inhibition of recombinant human C-terminal V5-His-tagged matriptase-2 expressed in Drosophila S2 cells using Boc-Gln-Ala-ArgAMC as substrate measured for 1200 mins by fluorescence assay.

Data set [3] is described as follows: Stability in mouse plasma assessed as parent compound remaining after 24 hrs. The data set is classed as ADME, cell-free. The settings on record: read-out: Stability.

As a reminder, the Ki is a dissociation constant, usually derived from enzyme kinetics or from competition with a known ligand. Consider `N=C(N)NCCC[C@H](NC(=O)[C@H](Cc1c[nH]c2ccccc12)NC(=O)C(Cc1ccc(O)cc1)NC(=O)[C@@H](N)Cc1ccc(O)cc1)C(=O)c1nc2ccccc2s1` (single isomer, unassigned), for which the Ki worked out at 5.6 nM in data set [1] and 3.1 nM in data set [2]. Also, the Ratio Ki in the data set listed under Homo sapiens is 2.

With `CC(C)[C@H](NC(=O)C(Cc1ccc(O)cc1)NC(=O)[C@@H](N)Cc1ccc(O)cc1)C(=O)N[C@@H](CCCNC(=N)N)C(=O)c1nc2ccccc2s1` (single isomer, unassigned), the Ratio Ki in the data set listed under Homo sapiens was 12. Also, in data set [3], the remaining at 24 h turned out to be 0%.

With `CC(C)[C@H](NC(=O)[C@H](Cc1ccc(OCc2ccccc2)cc1)NC(=O)CCc1ccccc1)C(=O)N[C@@H](CCCNC(=N)N)C(=O)c1nc2ccccc2s1`, the figures for the Ki in data set [1] and in data set [2] were 71 nM and 3.5 nM, respectively. In addition, in the data set filed under Homo sapiens, the Ratio Ki turned out to be 20.

For `N=C(N)NCCC[C@H](NC(=O)[C@H](Cc1c[nH]cn1)NC(=O)C(Cc1ccc(O)cc1)NC(=O)[C@@H](N)Cc1ccc(O)cc1)C(=O)c1nc2ccccc2s1` (single isomer, unassigned), the inhibitory constant (Ki) in data set [1] stood at 48 nM; in data set [2] it was 56 nM. Moreover, the Ratio Ki in the data set listed under Homo sapiens is 0.9.

Take `N=C(N)NCCC[C@H](NC(=O)[C@H](Cc1ccc(O)cc1)NC(=O)C(Cc1ccc(O)cc1)NC(=O)[C@@H](N)Cc1ccc(O)cc1)C(=O)c1nc2ccccc2s1` (single isomer, unassigned): the Ki was 7 nM in data set [1] and 1.1 nM in data set [2]. Moreover, the Ratio Ki in the data set filed under Homo sapiens amounted to 6.

On to `CC(C)CCC(=O)NC(Cc1ccc(O)cc1)C(=O)N[C@H](C(=O)N[C@@H](CCCNC(=N)N)C(=O)c1nc2ccccc2s1)C(C)C` (single isomer, unassigned), for which the Ki in data set [1] was found to be 28 nM; in data set [2], 6 nM. For the same compound, in the data set listed under Homo sapiens, the Ratio Ki was 5.

Take `CC(C)[C@H](NC(=O)[C@H](Cc1ccccc1)NC(=O)[C@@H](N)Cc1ccc(O)cc1)C(=O)N[C@@H](CCCNC(=N)N)C(=O)c1nc2ccccc2s1`: the Ki worked out at 63 nM in data set [1] and 9 nM in data set [2]. In the data set filed under Homo sapiens, the Ratio Ki is 7.

Turning to `N=C(N)NCCC[C@H](NC(=O)[C@H](Cc1cccs1)NC(=O)C(Cc1ccc(O)cc1)NC(=O)[C@@H](N)Cc1ccc(O)cc1)C(=O)c1nc2ccccc2s1` (single isomer, unassigned), the inhibition constant (Ki) in data set [1] was found to be 19 nM; in data set [2], 6 nM. For the same compound, in the data set filed under Homo sapiens, the Ratio Ki amounted to 3.

Regarding `CC(C)[C@H](NC(=O)[C@H](Cc1ccc(O)cc1)NC(=O)CC12CC3CC(CC(C3)C1)C2)C(=O)N[C@@H](CCCNC(=N)N)C(=O)c1nc2ccccc2s1`, the Ki in data set [1] was found to be 39 nM; in data set [2], 6 nM. The Ratio Ki in the data set filed under Homo sapiens is 6.

On to `CC[C@@H](C)[C@@H](NC(=O)[C@H](CCc1ccccc1)NC(=O)CCc1ccccc1)C(=O)N[C@@H](CCCNC(=N)N)C(=O)c1nc2ccccc2s1`, for which the values for the Ki in data set [1] and in data set [2] were 150 nM and 5 nM, respectively. Besides, the Ratio Ki in the data set listed under Homo sapiens turned out to be 30.

On to `CC(C)[C@H](NC(=O)C(Cc1ccc(O)cc1)NC(=O)CCc1ccccc1)C(=O)N[C@@H](CCCNC(=N)N)C(=O)c1nc2ccccc2s1` (single isomer, unassigned), for which the Ki in data set [1] is 43 nM; in data set [2] it was 1.74 nM. In the data set filed under Homo sapiens, the Ratio Ki came out at 25.

On to `N=C(N)NCCC[C@H](NC(=O)[C@H](Cc1ccc(O)c(O)c1)NC(=O)C(Cc1ccc(O)cc1)NC(=O)[C@@H](N)Cc1ccc(O)cc1)C(=O)c1nc2ccccc2s1` (single isomer, unassigned), for which the Ki came out at 12 nM in data set [1] and 5 nM in data set [2]. Also, the Ratio Ki in the data set listed under Homo sapiens stood at 2.

As for `N=C(N)NCCC[C@H](NC(=O)[C@H](Cc1cscn1)NC(=O)C(Cc1ccc(O)cc1)NC(=O)[C@@H](N)Cc1ccc(O)cc1)C(=O)c1nc2ccccc2s1` (single isomer, unassigned), the Ki in data set [1] was 20 nM; in data set [2], 13 nM. In addition, the Ratio Ki in the data set filed under Homo sapiens was determined as 2.

Turning to `CC[C@H](C)[C@@H](NC(=O)[C@H](CCc1ccccc1)NC(=O)CCc1ccccc1)C(=O)N[C@@H](CCCNC(=N)N)C(=O)c1nc2ccccc2s1`, the Ki in data set [1] came out at 12000 nM; in data set [2] it was 690 nM. Besides, in the data set listed under Homo sapiens, the Ratio Ki is 17.

For the compound `CC(C)(C)[C@H](NC(=O)[C@H](CCc1ccccc1)NC(=O)CCc1ccccc1)C(=O)N[C@@H](CCCNC(=N)N)C(=O)c1nc2ccccc2s1`, the Ki in data set [1] is 15000 nM; in data set [2] it was 560 nM. Further, in the data set listed under Homo sapiens, the Ratio Ki was determined as 27.

With `C[C@@H](O)[C@H](NC(=O)[C@H](CCc1ccccc1)NC(=O)CCc1ccccc1)C(=O)N[C@@H](CCCNC(=N)N)C(=O)c1nc2ccccc2s1`, the figures for the Ki in data set [1] and in data set [2] were 120 nM and 5.3 nM, respectively. In the data set listed under Homo sapiens, the Ratio Ki came out at 23.

Turning to `CC(C)[C@@H](NC(=O)[C@H](CCc1ccccc1)NC(=O)CCc1ccccc1)C(=O)N[C@@H](CCCNC(=N)N)C(=O)c1nc2ccccc2s1`, the results for the Ki in data set [1] and in data set [2] were 240 nM and 7 nM, respectively. Further, the Ratio Ki in the data set filed under Homo sapiens came out at 34.

In the case of `CCC[C@H](NC(=O)[C@H](CCc1ccccc1)NC(=O)CCc1ccccc1)C(=O)N[C@@H](CCCNC(=N)N)C(=O)c1nc2ccccc2s1`, the Ki in data set [1] came to 26 nM; in data set [2] it was 2.3 nM. Also, the Ratio Ki in the data set listed under Homo sapiens came out at 11.

Regarding `CC(C)[C@H](NC(=O)[C@H](Cc1cccc(Cl)c1)NC(=O)[C@@H](N)Cc1ccc(O)cc1)C(=O)N[C@@H](CCCNC(=N)N)C(=O)c1nc2ccccc2s1`, the figures for the Ki in data set [1] and in data set [2] were 34 nM and 5 nM, respectively. Also, the Ratio Ki in the data set filed under Homo sapiens is 7.

In the case of `C[C@H](O)[C@H](NC(=O)[C@H](CCc1ccccc1)NC(=O)CCc1ccccc1)C(=O)N[C@@H](CCCNC(=N)N)C(=O)c1nc2ccccc2s1`, the Ki in data set [1] turned out to be 200 nM; in data set [2], 3.1 nM. Also, in the data set listed under Homo sapiens, the Ratio Ki came to 64. The remaining at 24 h in data set [3] is more than 75%.

Regarding `CC[C@H](C)[C@H](NC(=O)[C@H](CCc1ccccc1)NC(=O)CCc1ccccc1)C(=O)N[C@@H](CCCNC(=N)N)C(=O)c1nc2ccccc2s1`, the Ki came to 230 nM in data set [1] and 4 nM in data set [2]. In the data set filed under Homo sapiens, the Ratio Ki is 58.

For the compound `CC(C)C[C@H](NC(=O)[C@H](CCc1ccccc1)NC(=O)CCc1ccccc1)C(=O)N[C@@H](CCCNC(=N)N)C(=O)c1nc2ccccc2s1`, the Ki in data set [1] came to 120 nM; in data set [2] it was 5.2 nM. In addition, in the data set listed under Homo sapiens, the Ratio Ki came to 23.

Regarding `CC[C@@H](C)[C@H](NC(=O)[C@H](CCc1ccccc1)NC(=O)CCc1ccccc1)C(=O)N[C@@H](CCCNC(=N)N)C(=O)c1nc2ccccc2s1`, the results for the Ki in data set [1] and in data set [2] were 51 nM and 2.6 nM, respectively. The Ratio Ki in the data set listed under Homo sapiens amounted to 20.

On to `N=C(N)NCCC[C@H](NC(=O)[C@@H](NC(=O)C(Cc1ccc(O)cc1)NC(=O)CCc1ccccc1)C(c1ccccc1)c1ccccc1)C(=O)c1nc2ccccc2s1` (single isomer, unassigned), for which the Ki was 1380 nM in data set [1] and 340 nM in data set [2]. In the data set listed under Homo sapiens, the Ratio Ki was 4.

Regarding `N=C(N)NCCC[C@H](NC(=O)[C@H](Cc1ccc2ccccc2c1)NC(=O)C(Cc1ccc(O)cc1)NC(=O)[C@@H](N)Cc1ccc(O)cc1)C(=O)c1nc2ccccc2s1` (single isomer, unassigned), the Ki in data set [2] came to 5.3 nM.

`CC(C)[C@H](NC(=O)[C@H](CCc1ccccc1)NC(=O)CCc1ccccc1)C(=O)N[C@@H](CCCNC(=N)N)C(=O)c1nc2ccccc2s1`: the Ki in data set [1] was determined as 65 nM; in data set [2] it was 2.1 nM. Moreover, the Ratio Ki in the data set filed under Homo sapiens came out at 31.
